Experimental data as given in patent US20070225371A1, “Dermatological composition containing alkyl ureas” (priority 2006, published 2007).

Experiments:
RNase A = target: T1, RNase A (Bos taurus, UniProt P61823); assay: Thermal denaturation of protein RNase A in urea or 1-butyl urea solution (Poklar et al.); type: biochemical; conditions: for 0.7 M of 1-butyl urea; estimated from temperature profiles of conformational transition of RNase A
T1 sequence (P61823 27-150): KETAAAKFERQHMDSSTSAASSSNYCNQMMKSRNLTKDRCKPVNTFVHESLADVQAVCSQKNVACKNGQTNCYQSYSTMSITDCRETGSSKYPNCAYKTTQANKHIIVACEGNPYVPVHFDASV
Source text: In their thermal denaturation studies of protein RNase A in alkyl urea solutions, Poklar et al., “Thermodynamic Stability of Ribonuclease A in Alkylurea Solutions and Preferential Solvation Changes Accompanying its Thermal Denaturation: A Calorimetric and Spectroscopic Study” in Protein Science, 8:832-840 (1999) report that the thermal stability of RNase A in solution decreases with increasing concentrations of denaturants and the size of the hydrophobic group substituted on the urea molecule.
Based on the temperature profiles of conformational transition (denaturation) of protein RNase A in urea or in 1-butyl urea solution, it can be estimated that 0.7 M of 1-butyl urea is equivalent to about 3.5 M of urea in terms of their protein denaturing capability. These studies provide a general guideline on estimating relative keratolytic activity of urea vs. 1-butyl urea in a dermatological composition.

[1] = equal to about 36 to 42% by weight; cited from earlier work

SMILES | urea concentration equivalent in protein denaturing capability (RNase A) | concentration minimally needed to show any noticeable keratolytic or protein denaturing activity [1]
CCCCNC(N)=O [1-butyl urea] | about 3.5 M | –
NC(N)=O [urea] | – | 6 to 7 M
